Measured values taken from ChEMBL document CHEMBL1201862, “PubChem BioAssay data set” (2004).
Activity calls are given as the source filed them.

Experiments:
Insulin-degrading enzyme = target: T1, Insulin-degrading enzyme (Homo sapiens, UniProt P14735); test: Dose Response: Fluorescence polarization-based cell-based high throughput dose response assay for inhibitors of insulin-degrading enzyme (IDE). [Related pubchem assays: 434962 (Primary screen (IDE inhibitors in singlicate)), 449730 (Counterscreen (Cytotoxicity in triplicate)), 435028 (Confirmation (IDE inhibitors in triplicate)), 434984 (Summary …; type: functional
T1 sequence (P14735 whole entry): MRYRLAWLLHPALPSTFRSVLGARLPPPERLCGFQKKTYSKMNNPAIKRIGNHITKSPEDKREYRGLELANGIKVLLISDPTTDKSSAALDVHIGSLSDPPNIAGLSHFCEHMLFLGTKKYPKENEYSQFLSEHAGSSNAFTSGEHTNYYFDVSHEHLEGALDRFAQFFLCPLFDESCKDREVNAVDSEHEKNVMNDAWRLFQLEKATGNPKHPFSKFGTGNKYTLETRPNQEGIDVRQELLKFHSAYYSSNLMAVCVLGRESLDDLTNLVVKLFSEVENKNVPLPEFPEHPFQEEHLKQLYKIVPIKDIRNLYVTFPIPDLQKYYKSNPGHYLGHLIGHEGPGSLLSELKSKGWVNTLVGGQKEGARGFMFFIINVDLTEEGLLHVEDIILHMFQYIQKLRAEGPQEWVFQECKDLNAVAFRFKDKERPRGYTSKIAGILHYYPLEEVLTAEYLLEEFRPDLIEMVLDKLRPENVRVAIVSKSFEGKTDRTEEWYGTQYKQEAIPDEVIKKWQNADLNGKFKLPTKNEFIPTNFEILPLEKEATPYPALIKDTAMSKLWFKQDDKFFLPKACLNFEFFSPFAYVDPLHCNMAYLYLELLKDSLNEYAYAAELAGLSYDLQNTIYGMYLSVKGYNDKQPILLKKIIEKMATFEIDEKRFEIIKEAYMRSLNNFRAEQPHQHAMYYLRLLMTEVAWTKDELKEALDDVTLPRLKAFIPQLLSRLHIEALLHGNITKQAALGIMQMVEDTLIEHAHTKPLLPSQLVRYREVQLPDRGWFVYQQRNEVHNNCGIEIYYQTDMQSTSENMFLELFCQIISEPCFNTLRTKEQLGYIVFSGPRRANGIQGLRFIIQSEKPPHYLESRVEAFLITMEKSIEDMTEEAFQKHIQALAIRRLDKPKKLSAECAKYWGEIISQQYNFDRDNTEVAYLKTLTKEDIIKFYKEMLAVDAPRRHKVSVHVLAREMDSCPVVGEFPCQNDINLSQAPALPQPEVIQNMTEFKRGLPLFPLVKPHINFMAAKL

[1] = enhancers of respiration in Yfh1-depleted yeast, dose response, Friedreich's ataxia, plus single-dose screen (AID 1465); type: functional;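 note: yeast depleted of Yfh1p frataxin homolog grown on glycerol needing respiration; WST-1 tetrazolium dye reduction as measure of cellular dehydrogenase metabolic activity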
Troponin, cardiac muscle = Troponin, cardiac muscle (Homo sapiens, UniProt P19429+P45379+P63316); test: Fluorescence-based biochemical high throughput dose response assay for activators of the calcium sensitivity of cardiac Regulated Thin Filaments (RTF). [Related pubchem assays (depositor defined):AID493008, AID493018, AID504382, AID504383]; type: protein-complex assay
[2] = Counterscreen for IDE inhibitors: Luminescence-based cell-based high throughput dose response assay to identify compounds that are cytotoxic to HEK cells. [Related pubchem assays: 434962 (Primary screen (IDE inhibitors in singlicate)), 449730 (Counterscreen (Cytotoxicity in triplicate)), 435028 (Confirmation (IDE inhibitors in triplicate)) …; type: functional; conditions: HEK293
HEK293 [3] = test: cells; type: functional, cell-based; conditions: Homo sapiens
HEK293 [4] = test: cells; type: functional, cell-based; conditions: Homo sapiens; remark: listed apart in the source
HEK293 [5] = test: NOD1 signaling inhibitors, primary screen, cell-based, luminescence, uHTS (AID 1578); type: functional; conditions: Homo sapiens
[6] = HepG2 cell cytotoxicity, dose response, cytotoxicity control for non-replicating M. tuberculosis project (AID 489018); type: functional; conditions: Mycobacterium tuberculosis
[7] = Vero E6 cell cytotoxicity, dose response, cytotoxicity control for non-replicating M. tuberculosis project, secondary assay (AID 492998); type: functional, VeroE6; conditions: Vero C1008
[8] = THP-1 cell cytotoxicity, dose response, cytotoxicity control for non-replicating M. tuberculosis project (AID 489025); type: functional
[9] = target: E3 ubiquitin-protein ligase Mdm2/Protein Mdm4 (Homo sapiens, UniProt O15151+Q00987); test: Mdm2-MdmX interaction inhibitors, dose response, luminescence detection (AID 504593); type: functional
[10] = HepG2 cell cytotoxicity, dose response, cytotoxicity control, plate reader, cherry-pick, antagonist series (AID 743416); type: functional, cell-based
[11] = LGR2 antagonists, dose response, cell-based, HEK293, CRE-luciferase reporter, cherry pick, set 2 (AID 743343); type: functional;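 note: transfected cells were stimulated with diluted bursicon conditioned medium after compound addition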
[12] = MC4R antagonists, dose response, counter-screen for LGR2 antagonist project, cell-based, plate reader, cherry pick (AID 743444); type: functional;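 note: transfected HEK 293 cells stimulated with alpha-MSH peptide; potency of inhibitors of the alpha-MSH evoked signal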
[13] = HEK293 cell cytotoxicity, dose response, cytotoxicity control, plate reader, cherry-picked samples (AID 743446); type: functional, cell-based
[14] = A549 cell cytotoxicity, dose response, cytotoxicity control, plate reader, cherry-pick, antagonist series (AID 743412); type: functional, cell-based
[15] = target: T2, Heat shock factor protein 1 (Mus musculus, UniProt P38532); test: inhibition of MG132-induced HSE-luciferase signal, confirmation, cell-based, NIH3T3, luminescence, dose retest (AID 2382); type: functional;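 note: NIH3T3 fibroblasts with HSF1-driven luciferase reporter stressed by proteasome inhibitor MG132; luminescence from HSF1-driven luciferase expression after 8 hours of MG132 stress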
T2 sequence (P38532 whole entry): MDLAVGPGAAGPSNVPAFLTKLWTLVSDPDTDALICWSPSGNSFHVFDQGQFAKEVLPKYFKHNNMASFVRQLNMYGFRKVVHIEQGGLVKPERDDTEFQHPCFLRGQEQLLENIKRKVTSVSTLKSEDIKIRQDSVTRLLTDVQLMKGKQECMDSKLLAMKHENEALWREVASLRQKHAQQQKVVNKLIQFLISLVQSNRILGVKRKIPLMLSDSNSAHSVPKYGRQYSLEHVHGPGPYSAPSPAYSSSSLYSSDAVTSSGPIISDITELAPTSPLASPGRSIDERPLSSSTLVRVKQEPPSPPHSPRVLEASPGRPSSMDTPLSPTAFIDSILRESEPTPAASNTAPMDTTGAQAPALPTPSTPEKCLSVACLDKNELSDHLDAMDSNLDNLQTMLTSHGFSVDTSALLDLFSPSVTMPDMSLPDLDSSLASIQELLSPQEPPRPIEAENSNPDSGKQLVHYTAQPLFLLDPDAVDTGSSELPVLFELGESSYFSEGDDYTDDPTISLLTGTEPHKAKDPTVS

[16] = cytotoxicity in HEK-293T cells, dose response, cytotoxicity control for TCR NF-kB inhibitor project, luminescence, T-cell screen hits (AID 489026); type: functional, cell-based;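 note: cells exposed to compound about 14 hours before the viability readout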
[17] = inhibitors of clade B AD8 Env fusion, dose response, cell-based, cherry-pick (AID 652062); type: functional;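 note: luciferase signal from cell-cell fusion driven by HIV-1 clade B AD8 Env; potency is for inhibitors of fusion seen as a drop in luminescence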
cells = type: functional
[18] = CEM21 lymphoblast cell cytotoxicity, dose response, cytotoxicity control for viral fusion inhibitor project, CellTiter-Glo luminescence, cherry-picked (AID 652042); type: functional, cell-based;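 note: potency for signal decrease meaning cytotoxicity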
[19] = cytotoxicity toward NIH3T3 fibroblasts, dose response, counter-screen, cell-based, ATP luminescence, mouse fibroblasts (AID 2010); type: functional;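 note: cells exposed to compound for about 90 hours before reading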
[20] = Luminescence Cell-Based Dose Retest to Confirm Inhibitors of Cancer Stem Cells. [Related pubchem assays (depositor defined):AID2717, AID2721]; type: functional; conditions: Homo sapiens
[21] = ZM109 Env clade C HIV-1 fusion inhibitors, dose response, HeLa effector, CEM target cells, luciferase, cherry-pick (AID 652058); type: functional, cell-based
[22] = target: G-protein coupled receptor 55 (Homo sapiens, UniProt Q9Y2T6); test: GPR55 antagonists blocking LPI-driven arrestin recruitment, primary screen, imaging, U2OS, beta-arrestin-GFP, LPI agonist (AID 2013); type: functional;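 note: antagonist potency measured as reduced agonist-driven arrestin aggregation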
[23] = inhibitors of intracellular T. cruzi replication, confirmation, NIH3T3 host cells, beta-gal luminescence (AID 2044); type: functional, cell-based;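 note: intracellular parasites grown in NIH/3T3 mouse fibroblasts as host cells; luminescent beta-galactosidase reporter signal from transgenic T. cruzi replicating inside host cells; inhibitors lower the luminescence signal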
[24] = target: Neurotensin receptor type 1 (Homo sapiens, UniProt P30989); type: functional;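 note: Image-based confirmatory dose-response assay measuring agonist activity at NTR1; NTR1-expressing U2OS osteosarcoma cells imaged for beta-arrestin GFP spot formation; agonist potency where compounds increase beta-arrestin recruitment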
[25] = off-target signal loss in HeLa-CEM21 co-culture – HeLa F-luc CTL cells, cherry-picked, counter-screen for HIV-1 Env fusion inhibitor project, dose response (AID 652040); type: functional, cell-based;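 note: potency for signal decrease marking cytotoxic or nonspecific inhibition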
[26] = inhibitors of HIV Env-driven cell fusion, dose response, cherry-pick (AID 652057); type: functional, cell-based
INS1 = test: beta cell apoptosis inhibitors, cytokine rescue, dose response, luminescence, retest (AID 449756); type: functional, cell-based; conditions: Rattus norvegicus;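 note: cell death triggered by IL-1 beta plus TNF-alpha plus IFN-gamma mixture; protective hits raise ATP signal compared with cytokine alone wells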

E3 ubiquitin-protein ligase Mdm2/Protein Mdm4, sequence (Q00987 whole entry): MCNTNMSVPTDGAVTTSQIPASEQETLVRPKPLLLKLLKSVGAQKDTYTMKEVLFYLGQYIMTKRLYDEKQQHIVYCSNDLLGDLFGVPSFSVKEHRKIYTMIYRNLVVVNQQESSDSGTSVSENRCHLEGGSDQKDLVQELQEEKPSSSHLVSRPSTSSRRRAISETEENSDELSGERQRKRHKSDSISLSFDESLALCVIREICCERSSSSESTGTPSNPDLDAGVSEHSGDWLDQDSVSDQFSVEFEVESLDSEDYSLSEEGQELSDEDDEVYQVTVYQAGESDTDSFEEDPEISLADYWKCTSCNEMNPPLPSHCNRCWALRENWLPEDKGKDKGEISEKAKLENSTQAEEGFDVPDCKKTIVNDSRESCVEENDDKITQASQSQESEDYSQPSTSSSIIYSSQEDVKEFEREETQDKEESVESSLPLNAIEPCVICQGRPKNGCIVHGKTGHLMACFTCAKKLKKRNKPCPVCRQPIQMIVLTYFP
E3 ubiquitin-protein ligase Mdm2/Protein Mdm4, sequence (O15151 whole entry): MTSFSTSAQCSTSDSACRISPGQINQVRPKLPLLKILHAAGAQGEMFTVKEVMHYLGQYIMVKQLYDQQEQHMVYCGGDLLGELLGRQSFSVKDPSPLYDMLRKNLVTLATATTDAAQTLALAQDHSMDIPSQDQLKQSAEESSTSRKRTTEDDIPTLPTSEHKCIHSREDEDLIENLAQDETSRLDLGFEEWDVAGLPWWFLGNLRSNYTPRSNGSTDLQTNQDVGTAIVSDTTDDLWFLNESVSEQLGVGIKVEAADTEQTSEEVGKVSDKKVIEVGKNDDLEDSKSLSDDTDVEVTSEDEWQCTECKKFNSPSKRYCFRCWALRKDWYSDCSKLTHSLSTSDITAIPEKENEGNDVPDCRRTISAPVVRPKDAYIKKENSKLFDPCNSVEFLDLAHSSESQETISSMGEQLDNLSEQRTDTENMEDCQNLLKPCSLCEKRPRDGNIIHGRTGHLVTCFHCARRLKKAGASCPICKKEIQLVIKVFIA
G-protein coupled receptor 55, sequence (Q9Y2T6 whole entry): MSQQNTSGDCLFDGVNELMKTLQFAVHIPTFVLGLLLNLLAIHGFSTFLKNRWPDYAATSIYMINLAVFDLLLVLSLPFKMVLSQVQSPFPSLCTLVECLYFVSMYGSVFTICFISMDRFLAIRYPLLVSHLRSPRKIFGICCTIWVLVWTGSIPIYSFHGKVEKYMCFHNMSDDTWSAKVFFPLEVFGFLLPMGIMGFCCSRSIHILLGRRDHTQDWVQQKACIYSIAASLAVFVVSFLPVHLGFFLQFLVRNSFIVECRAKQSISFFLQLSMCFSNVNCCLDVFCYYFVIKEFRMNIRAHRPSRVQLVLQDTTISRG
Neurotensin receptor type 1, sequence (P30989 whole entry, the tested form may be a part): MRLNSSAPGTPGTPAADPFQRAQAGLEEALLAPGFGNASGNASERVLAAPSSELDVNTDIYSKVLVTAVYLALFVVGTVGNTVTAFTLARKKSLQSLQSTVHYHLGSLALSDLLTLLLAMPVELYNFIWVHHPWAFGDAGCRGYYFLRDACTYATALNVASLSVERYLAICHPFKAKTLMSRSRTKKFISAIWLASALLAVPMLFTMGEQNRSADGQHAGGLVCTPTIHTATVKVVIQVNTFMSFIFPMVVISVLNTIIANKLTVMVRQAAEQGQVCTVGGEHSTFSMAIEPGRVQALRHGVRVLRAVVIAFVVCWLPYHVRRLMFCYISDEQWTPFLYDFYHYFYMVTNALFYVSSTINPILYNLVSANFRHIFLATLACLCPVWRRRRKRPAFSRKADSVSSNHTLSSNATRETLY

For `N#C/C(=C\c1ccc(N2CCOCC2)o1)C(=O)NC1CCCCC1`, the IC50 (Insulin-degrading enzyme) was 8.05 µM (active), the EC50 [1] was > 100 µM (active) and the EC50 (Troponin, cardiac muscle) was 6.89 µM (active). The IC50 [2] was 31.8 µM (not active).

In the case of `CN(C)S(=O)(=O)Oc1ccc(C(=O)Nc2cccc(C(F)(F)F)c2)cc1`, the IC50 (HEK293 [3]) was 12.1 µM (active), the IC50 (HEK293 [4]) was 6.71 µM (active) and the EC50 (HEK293 [5]) was 10.9 µM (active). The CC50 [6] was > 20 µM (active), the CC50 [7] was > 20 µM (active) and the CC50 [8] was > 40 µM (active).

In the case of `O=c1oc2ccccc2cc1-c1cn(-c2ccccc2)c(S)n1`, the IC50 [9] was 0.00374 µM (active), the AC50 [10] was 19.4 µM (active) and the AC50 [11] was 0.316 µM (active). The AC50 [12] was 0.259 µM (active), the AC50 [13] was 19.4 µM (active) and the AC50 [14] was 8.78 µM (active). For the same compound, the EC50 [15] was < 0.16 µM (active) and the IC50 [16] was > 80 µM (inactive).

In the case of `CC(NCC(O)COCCC12CC3CC(CC(C3)C1)C2)c1ccccc1` (stereo not drawn), the AC50 [17] was 16.8 µM (active), the IC50 (cells) was 14.6 µM (active) and the AC50 [18] was 13.3 µM (active). The EC50 [19] was > 60 µM (not active), the AC50 [20] was 6.14 µM (active) and the AC50 [21] was 11.2 µM (active). The IC50 [22] was 3.25 µM (active), the EC50 [23] was 0.157 µM (active) and the CC50 [6] was 12.7 µM (active). For the same compound, the EC50 [24] was 19.9 µM (active), the CC50 [7] was 13.7 µM (active) and the CC50 [8] was 12.5 µM (active). For the same compound, the AC50 [25] was 6.93 µM (active), the AC50 [26] was 3.45 µM (active) and the AC50 (INS1) was 7.3 µM (active).
